{
  "source": "paper PMC7400207",
  "about": "“It Takes Two: Dimerization Is Essential for the Broad-Spectrum Predatory and Defensive Activities of the Venom Peptide Mp1a from the Jack Jumper Ant Myrmecia pilosula” (Biomedicines, 2020)",
  "key": {"[1]": {"system": "S. pneumoniae ATCC 700677", "conditions": "taken from Dekan et al.; cited from earlier work"}, "P. aeruginosa FADDI-PA70": {"system": "P. aeruginosa FADDI-PA70", "conditions": "taken from Dekan et al.; cited from earlier work"}, "human red blood cells": {"system": "human red blood cells", "conditions": "cited from earlier work", "method": "Table 2 Summary of bioassay data for synthetic Mp1a and analogues, including effective concentration (EC50) for activation of F11 cells, concentrations that caused 50% inhibition (IC50) for inhibition of larval development of H. contortus; median lethal dose (LD50) for lethal insecticidal effects on D. melanogaster; concentrations required to induce 50% cell death (CC50) for effects on viability o | column: Hemolysis (HC50 µM) ^b"}, "P. aeruginosa ATCC 27853": {"system": "P. aeruginosa ATCC 27853", "conditions": "taken from Dekan et al.; cited from earlier work"}, "S. aureus NRS 17": {"system": "S. aureus NRS 17", "conditions": "taken from Dekan et al.; cited from earlier work"}, "A. baumannii ATCC 19606": {"system": "A. baumannii ATCC 19606", "conditions": "taken from Dekan et al.; cited from earlier work"}, "Haemonchus contortus": {"system": "Haemonchus contortus", "assay": "microbe, parasite or virus in culture", "assay_type": "cell-based", "method": "Sheep were infected with H. contortus Kirby isolate (field isolate from the University of New England Kirby Research Farm in 1986; susceptible to all commercial anthelmintics) and housed at the Commonwealth Scientific and Industrial Research Organisation (CSIRO) FD McMaster Laboratory, Armidale, NSW. All animal procedures were approved by the FD McMaster Animal Ethics Committee, CSIRO (Approval Number AEC 17/12, approval date 15.6.2017). Eggs were prepared from overnight fecal collection as described. In brief, feces were filtered through mesh filters, settled, and supernatant removed by vacuum. Eggs were recovered by density centrifugation using 10 and 25% (w/v) sucrose solutions, centrifuged at 650× g for 7 min. Eggs were recovered from the interface of the two sucrose layers, rinsed with distilled water, sterilized with bleach, rinsed again, and diluted to 4500 eggs/mL. Tylosin tartrate (800 μg/mL) and amphotericin B (25.0 μg/mL) were added, and eggs were used immediately for larval development assays.\nAssays were conducted using 96-well microtitre plates, with each well containing 50 μL of 2% agar, 20 μL of egg solution and 20 μL of peptide solution in water. The commercial anthelmintic levamisole (Sigma Aldrich) was used as a positive control (final 1% v/v). Negative controls contained equivalent volumes of water or DMSO (final 1% v/v). Plates were incubated at 26 °C for six days. After 24 h, each well was fed with 10 μL of a nutrient solution containing Escherichia coli XL1-Blue1 (grown overnight at 37 °C) and growth medium. The growth medium consisted of yeast extract (1% w/v), Earle’s salt solution (10% v/v), saline solution (0.9% NaCl, w/v), and sodium bicarbonate (1 mM) in Luria-Bertani medium (LB). Larvae were killed and stained with Lugol’s iodine solution after six days. Larvae that had developed to the infective L3 stage were counted, and the numbers in treated assay wells were expressed as a percentage of the number of infective L3 stage larvae in multiple control wells. Concentrations that caused 50% inhibition (IC50 values) were calculated from three experiments of duplicate assays."}, "S. aureus NARSA-VRS10": {"system": "S. aureus NARSA-VRS10", "conditions": "taken from Dekan et al.; cited from earlier work"}},
  "note": "Read-outs that look alike come from different tables or passages of the source.",
  "data": [
    {"compound": "CC[C@H](C)[C@H](N)C(=O)N[C@@H](CC(=O)O)C(=O)N[C@@H](Cc1c[nH]c2ccccc12)C(=O)N[C@@H](CCCCN)C(=O)N[C@@H](CCCCN)C(=O)N[C@H](C(=O)N[C@@H](CC(=O)O)C(=O)N[C@@H](Cc1c[nH]c2ccccc12)C(=O)N[C@@H](CCCCN)C(=O)N[C@@H](CCCCN)C(=O)N[C@H](C(=O)N[C@@H](CO)C(=O)N[C@@H](CCCCN)C(=O)N[C@@H](CCCCN)C(=O)N[C@H](C(=O)N[C@H]1CSSC[C@@H](C(=O)N[C@@H](CCCCN)C(=O)N[C@@H](CCCCN)C(=O)N[C@H](C(=O)N[C@@H](CC(C)C)C(=O)N[C@@H](CCCCN)C(=O)N[C@@H](CCC(N)=O)C(N)=O)C(C)C)NC(=O)[C@H](C(C)C)NC(=O)[C@H]([C@@H](C)O)NC(=O)[C@H](CCCCN)NC(=O)[C@H](C(C)C)NC(=O)[C@H](CC(C)C)NC(=O)[C@H](C(C)C)NC(=O)[C@@H](NC(=O)[C@@H](NC(=O)CNC(=O)[C@H](CCCCN)NC(=O)[C@H](CO)NC(=O)[C@@H](NC(=O)[C@H](CC(C)C)NC(=O)CNC(=O)[C@@H](NC(=O)[C@@H](N)CC(C)C)[C@@H](C)CC)C(C)C)[C@@H](C)O)CSSC[C@@H](C(=O)N[C@@H](CCCCN)C(=O)N[C@@H](Cc2ccccc2)C(=O)N[C@@H](CC(C)C)C(N)=O)NC(=O)[C@H](C)NC(=O)[C@H](CCCCN)NC(=O)[C@H](CC(C)C)NC(=O)[C@H](CCSC)NC(=O)[C@H](C(C)C)NC(=O)[C@H](CCCCN)NC1=O)[C@@H](C)O)C(C)C)C(C)C", "note": "[Analogue 1a, ∆-myrtoxin-Mp1a]", "values": [
      {"measurement": "MIC", "setting": "[1]", "value": "0.4 to 0.8", "unit": "µM"},
      {"measurement": "MIC", "setting": "P. aeruginosa FADDI-PA70", "value": 0.8, "unit": "µM"},
      {"measurement": "Hemolysis (HC50)", "setting": "human red blood cells", "value": 2.2, "unit": "µM"},
      {"measurement": "MIC", "setting": "P. aeruginosa ATCC 27853", "value": "0.4 to 0.8", "unit": "µM"},
      {"measurement": "MIC", "setting": "S. aureus NRS 17", "value": "0.4 to 0.8", "unit": "µM"},
      {"measurement": "MIC", "setting": "A. baumannii ATCC 19606", "value": 0.025, "unit": "µM"},
      {"measurement": "IC50", "setting": "Haemonchus contortus; H. contortus Kirby isolate, egg to infective L3, 6 days, 26 °C, three experiments of duplicate assays, ± SEM, for 1a the component at higher concentrations (about 90% of population), read-out: Anthelmintic Activity (IC50), inhibition of larval development", "value": "6.8 ± 0.5", "unit": "µM"},
      {"measurement": "IC50", "setting": "Haemonchus contortus; H. contortus larval development, component of the response at < 2 µM, read-out: IC50 for the response observed at lower concentrations (biphasic curve)", "value": 0.19, "unit": "µM"},
      {"measurement": "Larval development as % of that observed in control assays", "setting": "Haemonchus contortus; at low micromolar concentrations (< 2 µM)", "value": 90, "unit": "%"},
      {"measurement": "Fold more potent than spider-venom peptide Hi1a", "setting": "Haemonchus contortus; larval development, same assay", "value": "about threefold"},
      {"measurement": "MIC", "setting": "S. aureus NARSA-VRS10", "value": 0.8, "unit": "µM"}
    ]}
  ]
}
